The text below walks through data of ChEMBL document CHEMBL1250452, “Bradykinin B1 receptor antagonists as potential therapeutic agents for pain” (J Med Chem, 2010).

The nature of data set [1]: Half life in Sprague-Dawley rat at 2 mg/kg, iv. Type of data set: ADME, organism-based. Further details: dose 2 mg/kg, route intravenous. The conditions noted are these: in vivo.
The target of data set [2] is T1, B1 bradykinin receptor (Canis lupus familiaris, UniProt Q9BDQ5).
T1 sequence (Q9BDQ5 whole entry): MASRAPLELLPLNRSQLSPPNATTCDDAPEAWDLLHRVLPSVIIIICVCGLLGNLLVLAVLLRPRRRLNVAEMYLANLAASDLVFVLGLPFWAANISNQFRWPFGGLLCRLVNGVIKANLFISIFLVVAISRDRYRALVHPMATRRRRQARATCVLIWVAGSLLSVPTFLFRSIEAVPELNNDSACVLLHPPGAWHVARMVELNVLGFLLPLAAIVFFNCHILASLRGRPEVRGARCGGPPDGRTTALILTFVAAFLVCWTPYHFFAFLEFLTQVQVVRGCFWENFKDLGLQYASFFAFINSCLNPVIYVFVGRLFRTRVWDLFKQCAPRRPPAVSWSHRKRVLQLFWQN
Nature of the data set: Antagonist activity at dog bradykinin B1 receptor. Type of data set: functional.

Data set [3] has as its target T2, B1 bradykinin receptor (Oryctolagus cuniculus, UniProt P48748).
T2 sequence (P48748 whole entry): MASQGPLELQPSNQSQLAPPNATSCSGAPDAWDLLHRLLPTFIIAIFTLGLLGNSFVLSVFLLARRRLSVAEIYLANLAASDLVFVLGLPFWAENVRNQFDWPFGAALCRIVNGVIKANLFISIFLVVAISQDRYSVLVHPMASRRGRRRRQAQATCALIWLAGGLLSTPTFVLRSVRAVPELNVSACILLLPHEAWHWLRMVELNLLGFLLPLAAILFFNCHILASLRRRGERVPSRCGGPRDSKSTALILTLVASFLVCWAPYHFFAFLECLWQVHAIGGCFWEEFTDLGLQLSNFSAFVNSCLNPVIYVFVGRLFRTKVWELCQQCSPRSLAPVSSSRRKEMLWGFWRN
Description: Inhibition of rabbit bradykinin B1 receptor.

The target of data set [4] is T3, B1 bradykinin receptor (Rattus norvegicus, UniProt P97583).
T3 sequence (P97583 whole entry): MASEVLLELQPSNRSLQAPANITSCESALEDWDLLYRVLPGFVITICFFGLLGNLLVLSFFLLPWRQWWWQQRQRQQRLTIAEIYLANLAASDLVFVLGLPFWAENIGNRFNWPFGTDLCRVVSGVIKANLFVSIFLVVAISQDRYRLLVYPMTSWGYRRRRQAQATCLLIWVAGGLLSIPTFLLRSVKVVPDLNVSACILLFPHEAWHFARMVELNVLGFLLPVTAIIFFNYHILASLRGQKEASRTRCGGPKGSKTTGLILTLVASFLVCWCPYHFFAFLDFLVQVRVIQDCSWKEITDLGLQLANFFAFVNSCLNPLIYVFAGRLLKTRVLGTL
Nature of the data set: Inhibition of rat bradykinin B1 receptor.

Data set [5] concerns the target T4, B1 bradykinin receptor (Homo sapiens, UniProt P46663).
T4 sequence (P46663 whole entry): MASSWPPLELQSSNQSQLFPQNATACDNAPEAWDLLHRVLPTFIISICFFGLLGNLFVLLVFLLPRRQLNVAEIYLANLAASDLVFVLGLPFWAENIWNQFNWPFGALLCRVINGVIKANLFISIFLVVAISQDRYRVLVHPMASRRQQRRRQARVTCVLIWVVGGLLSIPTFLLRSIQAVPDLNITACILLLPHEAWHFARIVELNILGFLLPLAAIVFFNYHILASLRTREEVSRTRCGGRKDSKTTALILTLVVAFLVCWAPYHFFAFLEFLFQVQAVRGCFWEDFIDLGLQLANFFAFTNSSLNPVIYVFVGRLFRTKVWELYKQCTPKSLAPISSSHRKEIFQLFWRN
Nature of the data set: Antagonist activity at human bradykinin B1 receptor in human MR5 cells assessed as [3H]inositol phosphate accumulation. The class given is functional, cell-based.

The subject of data set [6] is Rattus norvegicus. Description: Antiinflammatory activity in rat assessed as reversal of carrageenan-induced hyperalgesia at 3 mg/kg, ip. The class given is functional. The conditions noted are these: route intraperitoneal.
Data set [7] in a line: Half life in Sprague-Dawley rat at 0.7 mg/kg, iv. Type of data set: ADME, organism-based. Also on record: dose 0.7 mg/kg, route intravenous. The conditions noted are these: in vivo.
Data set [8] has as its target T5, B1 bradykinin receptor (Macaca mulatta, UniProt Q8HZP2).
T5 sequence (Q8HZP2 whole entry): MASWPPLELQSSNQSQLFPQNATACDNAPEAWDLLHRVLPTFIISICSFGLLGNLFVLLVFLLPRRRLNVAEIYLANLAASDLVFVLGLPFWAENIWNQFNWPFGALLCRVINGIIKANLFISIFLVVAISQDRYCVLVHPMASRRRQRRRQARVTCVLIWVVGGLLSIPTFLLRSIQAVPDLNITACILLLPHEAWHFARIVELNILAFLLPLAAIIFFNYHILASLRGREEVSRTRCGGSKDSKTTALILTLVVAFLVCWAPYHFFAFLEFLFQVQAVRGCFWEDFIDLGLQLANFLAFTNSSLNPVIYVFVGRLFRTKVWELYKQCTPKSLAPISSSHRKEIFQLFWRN
Nature of the data set: Binding affinity to monkey bradykinin B1 receptor.

Data set [9] in a line: Oral bioavailability in Sprague-Dawley rat at 7 mg/kg. Type of data set: ADME, organism-based. The conditions noted are these: in vivo.

For orientation: half-life means the time in which the quantity being followed falls by half. In turn, `O=C(NCCCN1CCCCC1)Nc1ccc(S(=O)(=O)Nc2ccccc2C(=O)c2ccccc2)cc1` showed a half-life in data set [1] of 14 h.
Consider `O=C(Nc1ccc(S(=O)(=O)Nc2ccccc2C(=O)c2ccccc2)cc1)OCC1CCCO1` (configuration not stated), for which, in [1], the half-life was 9.7 h.
The term IC50 denotes the concentration needed to halve the response being measured. Regarding `O=C(C[C@@H]1C(=O)Nc2ccccc2N1S(=O)(=O)c1ccc(Cl)c(Cl)c1)NCCc1ccc(C2=NCCN2)cc1`, the IC50 was 16.3 nM in data set [2], 0.26 nM in data set [3] and 163 nM in data set [4].
Turning to `O=C(Nc1[nH]nc(C(=O)NCCC2CCN(c3ccncc3)CC2)c1Br)c1ccccc1Cl`, the IC50 in [5] came to 3.5 nM.
As for `CC(=O)Nc1ccc(S(=O)(=O)Nc2ccccc2C(=O)c2ccccc2)cc1`, the half-life in data set [1] was 0.3 h.
Turning to `CCCN1C(=O)[C@H](NC(=O)Nc2ccc(N3CCN(c4ccncc4)CC3)cc2)N=C(CCc2ccccc2)c2ccccc21`, in data set [1], the half-life was 2.7 h. Besides, the Activity in data set [6] is recorded as 89%.
Broadly, the Ki is the dissociation constant of the complex between target and ligand, obtained from inhibition or displacement. As a reminder, the bioavailability is the share of a dose that reaches the circulation, judged against a reference dose that is usually intravenous. Consider `CN1CCN(C(=O)C2CCN(S(=O)(=O)c3ccc(NCC(c4ccccc4)c4ccccc4)c(C(=O)N4CCOCC4)c3)CC2)CC1`, for which the half-life in [7] is 2.7 h. This molecule displayed a Ki in [8] of 7.7 nM. This molecule also displayed a bioavailability in data set [9] of 42%.
